What follows are molecules tested against T1, Mucosa-associated lymphoid tissue lymphoma translocation protein 1 (Homo sapiens, UniProt Q9UDY8) (assay: MALT1 Protease Assay 2).
T1 sequence (Q9UDY8 whole entry): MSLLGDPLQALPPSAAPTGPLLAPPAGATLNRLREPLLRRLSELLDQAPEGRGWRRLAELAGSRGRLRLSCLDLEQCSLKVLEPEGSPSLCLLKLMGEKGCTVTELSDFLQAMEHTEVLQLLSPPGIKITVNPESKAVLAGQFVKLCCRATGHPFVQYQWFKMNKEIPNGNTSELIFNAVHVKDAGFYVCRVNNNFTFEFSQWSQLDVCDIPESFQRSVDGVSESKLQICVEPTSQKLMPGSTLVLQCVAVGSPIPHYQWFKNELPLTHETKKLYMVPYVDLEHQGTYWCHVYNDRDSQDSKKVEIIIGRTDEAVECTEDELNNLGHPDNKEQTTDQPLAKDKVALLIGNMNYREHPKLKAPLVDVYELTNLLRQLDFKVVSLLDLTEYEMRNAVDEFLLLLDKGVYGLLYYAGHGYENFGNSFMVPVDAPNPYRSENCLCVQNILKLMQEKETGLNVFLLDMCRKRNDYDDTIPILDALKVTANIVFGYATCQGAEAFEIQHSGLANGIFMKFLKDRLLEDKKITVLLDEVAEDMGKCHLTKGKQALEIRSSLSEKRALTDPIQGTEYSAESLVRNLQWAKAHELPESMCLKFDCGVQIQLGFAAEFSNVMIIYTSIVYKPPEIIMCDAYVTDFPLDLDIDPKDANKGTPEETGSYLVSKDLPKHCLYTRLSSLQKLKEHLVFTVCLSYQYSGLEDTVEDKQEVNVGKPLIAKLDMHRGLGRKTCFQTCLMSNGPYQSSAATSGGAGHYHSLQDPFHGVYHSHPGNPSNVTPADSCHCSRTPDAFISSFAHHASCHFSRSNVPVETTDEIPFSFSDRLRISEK
Experimental: Test compounds were dissolved in 100% DMSO at stock of 10 mM, with final DMSO concentration 0.1%. Test compounds were pre-incubated with MALT1 protein for 2 h at room temperature.
C[C@@]1(C(F)(F)F)CN(C(=O)Nc2cc(O[C@H]3CCNC3)nc(C(F)(F)F)c2)c2cnc3cc(Cl)nn3c21 [US20240018157, Example 75] showed an IC50 of 10 to 100 nM.
C[C@H](O)c1cnn(-c2ncc(NC(=O)N3C[C@@](C)(C(F)(F)F)c4c3cnc3cc(Cl)nn43)cc2Cl)n1 [US20240018157, Example 76] gave an IC50 of under 10 nM.
In the case of C[C@@H](O)c1cnn(-c2ncc(NC(=O)N3C[C@@](C)(C(F)(F)F)c4c3cnc3cc(Cl)nn43)cc2Cl)n1 [US20240018157, Example 77], the IC50 is reported as under 10 nM.
Molecule COCc1cnn(-c2ncc(NC(=O)N3C[C@@](C)(C(F)(F)F)c4c3cnc3cc(Cl)nn43)cc2Cl)n1 [US20240018157, Example 79] has an IC50 of under 10 nM.
In the case of C[C@@]1(C(F)(F)F)CN(C(=O)Nc2cc(N=S(C)(C)=O)nc(C(F)(F)F)c2)c2cnc3cc(Cl)nn3c21 [US20240018157, Example 83], the IC50 is reported as under 10 nM.
For C[C@@]1(C(F)(F)F)CN(C(=O)Nc2cnc(N=S(C)(C)=O)c(Cl)c2)c2cnc3cc(Cl)nn3c21 [US20240018157, Example 85], the IC50 was under 10 nM.
C[C@@]1(C(F)(F)F)CN(C(=O)Nc2cnc(-n3nccc3C#N)c(C#N)c2)c2cnc3cc(Cl)nn3c21 [US20240018157, Example 87] gave an IC50 of under 10 nM.
C[C@@]1(C(F)(F)F)CN(C(=O)Nc2ccnc(C(F)F)c2)c2cnc3cc(F)nn3c21 [US20240018157, Example 88] showed an IC50 of 10 to 100 nM.
In the case of C[C@]1(C(F)(F)F)CN(C(=O)Nc2ccnc(C(F)F)c2)c2cnc3cc(F)nn3c21 [US20240018157, Example 89], the IC50 is reported as 100 to 1000 nM.
Work on C[C@@]1(C(F)(F)F)CN(C(=O)Nc2cnc(-n3nccn3)c(C#N)c2)c2cnc3cc(F)nn3c21 [US20240018157, Example 91] yielded an IC50 of under 10 nM.
Molecule COc1cnn(-c2ncc(NC(=O)N3C[C@@](C)(C(F)(F)F)c4c3cnc3cc(Cl)nn43)cc2Cl)n1 [US20240018157, Example 92] has an IC50 of under 10 nM.
Work on CCOc1cc(NC(=O)N2C[C@@](C)(C(F)(F)F)c3c2cnc2cc(Cl)nn32)cn(C(F)F)c1=O [US20240018157, Example 93] yielded an IC50 of 10 to 100 nM.
Work on C[C@@]1(C(F)(F)F)CN(C(=O)Nc2cnn(S(C)(=O)=O)c2)c2cnc3cc(Cl)nn3c21 [US20240018157, Example 94] yielded an IC50 of 100 to 1000 nM.
COC[C@@]1(C(F)(F)F)CN(C(=O)Nc2cnc(-n3nccn3)c(Cl)c2)c2cnc3cc(Cl)nn3c21 [US20240018157, Example 97] was tested, and the IC50 was under 10 nM.
COC[C@]1(C(F)(F)F)CN(C(=O)Nc2cnc(-n3nccn3)c(Cl)c2)c2cnc3cc(Cl)nn3c21 [US20240018157, Example 98] showed an IC50 of 10 to 100 nM.
C[C@@]1(C(F)(F)F)CN(C(=O)Nc2cc(C(F)F)no2)c2cnc3cc(Cl)nn3c21 [US20240018157, Example 103] showed an IC50 of 100 to 1000 nM.
C[C@@]1(C(F)(F)F)CN(C(=O)Nc2cnc(-n3nccn3)c(C(F)F)c2)c2cnc3cc(F)nn3c21 [US20240018157, Example 104] showed an IC50 of under 10 nM.
In the case of C[C@]1(C(F)(F)F)CN(C(=O)Nc2cnc(-n3nccn3)c(C(F)F)c2)c2cnc3cc(F)nn3c21 [US20240018157, Example 105], the IC50 is reported as 100 to 1000 nM.
Work on CN(C)C(=O)COc1ncc(NC(=O)N2C[C@@](C)(C(F)(F)F)c3c2cnc2cc(Cl)nn32)cc1C(F)F [US20240018157, Example 108] yielded an IC50 of over 1000 nM.
For C[C@@]1(C(F)(F)F)CN(C(=O)Nc2cnnc(C(F)F)c2)c2cnc3cc(F)nn3c21 [US20240018157, Example 114], the IC50 was over 1000 nM.
C[C@]1(C(F)(F)F)CN(C(=O)Nc2cnnc(C(F)F)c2)c2cnc3cc(F)nn3c21 [US20240018157, Example 115] was tested, and the IC50 was 10 to 100 nM.
C[S@+]([O-])c1ccc(NC(=O)N2C[C@@](C)(C(F)(F)F)c3c2cnc2cc(Cl)nn32)cc1C(F)F [US20240018157, Example 116] showed an IC50 of under 10 nM.
For C[S@@+]([O-])c1ccc(NC(=O)N2C[C@@](C)(C(F)(F)F)c3c2cnc2cc(Cl)nn32)cc1C(F)F [US20240018157, Example 117], the IC50 was 100 to 1000 nM.
In the case of Cc1cn2ncc3c(c2n1)[C@](C)(C(F)(F)F)CN3C(=O)Nc1cnnc(C(F)F)c1 [US20240018157, Example 119], the IC50 is reported as 10 to 100 nM.
Cc1cn2ncc3c(c2n1)[C@@](C)(C(F)(F)F)CN3C(=O)Nc1cnnc(C(F)F)c1 [US20240018157, Example 120] was tested, and the IC50 was over 1000 nM.
CN(C)C(=O)c1ncc(NC(=O)N2C[C@@](C)(C(F)(F)F)c3c2cnc2cc(Cl)nn32)cc1C(F)F [US20240018157, Example 122] showed an IC50 of under 10 nM.
Molecule Cc1cc(NC(=O)N2C[C@](C)(C(F)(F)F)c3c2cnc2cc(F)nn32)cnc1-n1nccn1 [US20240018157, Example 124] has an IC50 of over 1000 nM.
Cc1cc(NC(=O)N2C[C@@](C)(C(F)(F)F)c3c2cnc2cc(F)nn32)cnc1-n1nccn1 [US20240018157, Example 125] was tested, and the IC50 was under 10 nM.
C[C@H](O)c1cnn(-c2ncc(NC(=O)N3C[C@@](C)(C(F)(F)F)c4c3cnc3cc(Cl)nn43)cc2C(F)F)n1 [US20240018157, Example 126] gave an IC50 of under 10 nM.
C[C@@H](O)c1cnn(-c2ncc(NC(=O)N3C[C@@](C)(C(F)(F)F)c4c3cnc3cc(Cl)nn43)cc2C(F)F)n1 [US20240018157, Example 127] gave an IC50 of under 10 nM.
C[C@@]1(C(F)F)CN(C(=O)Nc2cnc(-n3nccn3)c(Cl)c2)c2cnc3cc(Cl)nn3c21 [US20240018157, Example 128] showed an IC50 of under 10 nM.
In the case of C[C@]1(C(F)F)CN(C(=O)Nc2cnc(-n3nccn3)c(Cl)c2)c2cnc3cc(Cl)nn3c21 [US20240018157, Example 129], the IC50 is reported as 10 to 100 nM.
Molecule CO[C@]1(C(F)(F)F)CN(C(=O)Nc2cnc(-n3nccn3)c(Cl)c2)c2cnc3cc(Cl)nn3c21 [US20240018157, Example 135] has an IC50 of 100 to 1000 nM.
CO[C@@]1(C(F)(F)F)CN(C(=O)Nc2cnc(-n3nccn3)c(Cl)c2)c2cnc3cc(Cl)nn3c21 [US20240018157, Example 136] gave an IC50 of under 10 nM.
Molecule C[C@]1(C(F)(F)F)CN(C(=O)Nc2cnnc(C(F)F)c2)c2cnc3c(F)c(Cl)nn3c21 [US20240018157, Example 137] has an IC50 of over 1000 nM.
Work on C[C@@]1(C(F)(F)F)CN(C(=O)Nc2cnnc(C(F)F)c2)c2cnc3c(F)c(Cl)nn3c21 [US20240018157, Example 138] yielded an IC50 of 10 to 100 nM.
C[C@]1(C(F)(F)F)CN(C(=O)Nc2cnc(-n3nccn3)c(Cl)c2)c2cnc3c(F)c(F)nn3c21 [US20240018157, Example 139] was tested, and the IC50 was over 1000 nM.
C[C@@]1(C(F)(F)F)CN(C(=O)Nc2cnc(-n3nccn3)c(Cl)c2)c2cnc3c(F)c(F)nn3c21 [US20240018157, Example 140] gave an IC50 of under 10 nM.
C[C@]1(C(F)(F)F)CN(C(=O)Nc2cnnc(C(F)F)c2)c2cnc3c(F)c(F)nn3c21 [US20240018157, Example 141] gave an IC50 of over 1000 nM.
Work on C[C@@]1(C(F)(F)F)CN(C(=O)Nc2cnnc(C(F)F)c2)c2cnc3c(F)c(F)nn3c21 [US20240018157, Example 142] yielded an IC50 of 10 to 100 nM.
For O=C(Nc1cnnc(C(F)F)c1)N1C[C@@](C2CC2)(C(F)(F)F)c2c1cnc1cc(Cl)nn21 [US20240018157, Example 144], the IC50 was 10 to 100 nM.
In the case of O=C(Nc1cnnc(C(F)F)c1)N1C[C@](C2CC2)(C(F)(F)F)c2c1cnc1cc(Cl)nn21 [US20240018157, Example 145], the IC50 is reported as 100 to 1000 nM.
Molecule C[C@@]1(C(F)(F)F)CN(C(=O)Nc2cnc(-n3nccn3)c(Cl)c2)c2cnc3c(F)cnn3c21 [US20240018157, Example 146] has an IC50 of under 10 nM.
With C[C@]1(C(F)(F)F)CN(C(=O)Nc2cnc(-n3nccn3)c(Cl)c2)c2cnc3c(F)cnn3c21 [US20240018157, Example 147] the IC50 was over 1000 nM.
C[C@@]1(C(F)(F)F)CN(C(=O)Nc2cnc(C(=O)NC3CC3)c(C(F)F)c2)c2cnc3cc(Cl)nn3c21 [US20240018157, Example 150] was tested, and the IC50 was under 10 nM.
In the case of CN(C(=O)c1ncc(NC(=O)N2C[C@@](C)(C(F)(F)F)c3c2cnc2cc(Cl)nn32)cc1C(F)F)C1CC1 [US20240018157, Example 151], the IC50 is reported as under 10 nM.
In the case of Cc1cn2ncc3c(c2n1)[C@](C)(C(F)(F)F)CN3C(=O)Nc1cnc(-n2nccn2)c(Cl)c1 [US20240018157, Example 152], the IC50 is reported as under 10 nM.
With Cc1cn2ncc3c(c2n1)[C@@](C)(C(F)(F)F)CN3C(=O)Nc1cnc(-n2nccn2)c(Cl)c1 [US20240018157, Example 153] the IC50 was 10 to 100 nM.
Cc1nnc(C(F)F)cc1NC(=O)N1C[C@@](C)(C(F)(F)F)c2c1cnc1cc(Cl)nn21 [US20240018157, Example 154] gave an IC50 of 100 to 1000 nM.
Work on C[C@]1(C(F)(F)F)CN(C(=O)Nc2cnnc(C(F)F)c2)c2cnc3cc(CC(F)F)nn3c21 [US20240018157, Example 155] yielded an IC50 of 100 to 1000 nM.
Work on C[C@@]1(C(F)(F)F)CN(C(=O)Nc2cnnc(C(F)F)c2)c2cnc3cc(CC(F)F)nn3c21 [US20240018157, Example 156] yielded an IC50 of over 1000 nM.
In the case of CCc1nn2c3c(cnc2c1N)N(C(=O)Nc1cnc(-n2nccn2)c(Cl)c1)C[C@]3(C)C(F)(F)F [US20240018157, Example 157], the IC50 is reported as 100 to 1000 nM.
CCc1nn2c3c(cnc2c1N)N(C(=O)Nc1cnc(-n2nccn2)c(Cl)c1)C[C@@]3(C)C(F)(F)F [US20240018157, Example 158] gave an IC50 of over 1000 nM.
